Assay results from US9656953B2, “Inhibition of cell proliferation” (University of South Florida, priority 2005, dated 2017).
Entries after “also recorded” stand apart in the source; their conditions may differ.

Experiments:
A549 tumors [1] = assay: A549 xenograft in nude mice; type: in vivo; conditions: for tumor size, A549 xenograft: vehicle 1039±128 mm^3
Procedure: Animal Studies. Nude mice (Charles River, Wilminton, Mass., USA) were maintained in accordance with Institutional Animal Care and Use Committee (IAUCUC) procedures and guidelines. A549 cells were harvested and resuspended in PBS, and then injected s.c. into the right and left flanks (10×10^6 cells per flank) of 8-week old female nude mice as reported previously (Sun 99). When tumors reached about 100-200 mm^3, animals were dosed intraperitoneally i.p. or orally by gavage with 0.1 mL solution once daily. […] The tumor volumes were determined by measuring the length (l) and the width (w) and calculating the volume (V=lw^2/2) as described previously (Sun 99). Statistical significance between control and treated animals were evaluated using Student's t-test.

[2] = tested on: H1650 non-small cell lung cancer cell line; assay: BrdU incorporation, S-phase entry, H1650; type: cell-based; conditions: EGFR mutant NSCLC
Procedure: (§1) Proliferation assays. Bromodeoxyuridine (BrdU) labeling kits were obtained from Roche Biochemicals (Indianapolis, Ind.). Cells were plated in poly-D-lysine coated chamber slides at a density of 10,000 cells per well and rendered quiescent by serum starvation for 24 hours. Cells were then re-stimulated with serum in the presence or absence of the indicated drugs for 18 h. S-phase cells were visualized by microscopy and quantitated by counting 3 fields of 100 in quadruplicate.
Because many cancers contain more than one mutation in tumor suppressor genes or oncogenes, we determined the ability of 3a to inhibit proliferation in cell lines containing alterations in key regulatory genes.

LNCaP prostate cell line = assay: BrdU proliferation assay, LNCaP; type: cell-based
Procedure: as §1
Prostate cell lines LNCaP and PC3 both contain mutations in K-Ras and PTEN genes.

[3] = tested on: cdc6, cdc25A and TS promoters; assay: Chromatin immunoprecipitation (ChIP) assay, A549 cells; type: cell-based, human; conditions: 20 μM
Procedure: Chromatin immunoprecipitation (ChIP) assay. A549 cells were rendered quiescent by serum starvation and re-stimulated with serum for 2h or 16h in the presence or absence of RRD 251 at 20μM. Cells were cross-linked with 1% formaldehyde for 10 minutes at room temperature. Subsequently, the cells were harvested and lysates were prepared. Immunoprecipitations were analyzed for the presence of E2F1, Rb, Raf-1, Brg1, HP1, and HDAC1 by PCR as previously described (Dasgupta 2004). Rabbit anti-mouse secondary antibody was used as the control for all reactions. The sequences of the PCR primers used in the PCRs were as follows: Cdc6 promoter (forward primer), 5′- […]-3′ (SEQ ID NO:1); and Cdc6 promoter (reverse primer), 5′-[…]-3′ (SEQ ID NO:2). TS promoter (forward primer), and 5′-GAC GGA GGC AGG CCA AGT G-3′ SEQ ID NO:3) TS promoter (reverse primer). The cdc25A and c-fos primers are described in (Dasgupta, 2004).
Since serum is known to stimulate the binding of Raf-1 to Rb and leads to the dissociation of the co-repressor Brg-1 from E2F-responsive proliferative promoters like cdc6, cdc25 and TS promoters, it was hypothesized that 3a may interfere with this process. […] Binding of E2F1, HDAC1 and HP1 was not affected.

A549 tumors [4] = assay: Immunohistochemistry staining of A549 xenograft tumors; type: in vivo, nude mice; conditions: A549 tumors at end of treatment
Excerpt: Immunohistochemistry staining. Upon termination of xenograft anti-tumor experiments, tumors were removed and fixed in 10% neutral-buffered formalin before processing into paraffin blocks. Tissue sections (5 micrometers (μm) thick) were cut from the blocks and stained with Ki-67, CD31, TUNEL, and phospho-Rb antibodies. Paraffin sections were rehydrated to PBS and processed using the following protocols. Sections were rinsed in dH2O, and then subjected to microwave ‘antigen retrieval’ for 20 minutes on 70% power, with a 1 minute cooling period after every 5 minutes, in 0.01 M sodium citrate, pH 6.0 (Janssen P J, Brinkmann A O, Boersma W J, Van der Kwast T H. J Histochem Cytochem 1994; 42(8):1169-75; Shi S R, Key M E, Kalra K L. J Histochem Cytochem 1991; 39(6):741-748). Sections were cooled for 20 minutes, rinsed 3 times in dH2O, twice in PBS and incubated in 5% normal goat serum for 30 minutes. Sections were incubated in primary antibody for 1 hour in 5% normal goat serum, rinsed 3 times in PBS. For color development the slides were treated with ABC kit (Vector Labs, Burlingame, Calif.) rinsed in dH2O, and developed using DAB as chromogen. After a final rinse in dH2O, sections were lightly counterstained in hematoxylin, dehydrated, cleared and coverslipped. Tissue sections were stained with hematoxylin and eosin (H&E) using standard histological techniques. Tissue sections were also subjected to immunostaining for CD31 (BD Biosciences, San Diego, Calif., USA) using the avidin-biotin peroxidase complex technique. Mouse monoclonal antibody was used at 1:50 dilution following microwave antigen retrieval (four cycles of 5 min each on high in 0.1 M citrate buffer). Apoptotic cells were detected using DeadEnd Colorimetric TUNEL system (Promega, Madison, Wis.).
At the end of the drug treatment, the A549 tumors were removed from the mice and fixed in formalin or snap frozen in liquid nitrogen for further histochemical analysis. The tumors were analyzed by immunohistochemistry staining with hematoxylin and eosin (H&E), TUNEL, Ki-67, phospho-Rb (807,811), and CD-31. […] Tumors were homogenized and lysates were prepared to assess the inhibition of Rb:Raf-1 interaction in vivo.

SK-MEL-28 cells = assay: Soft agar assay, SK-MEL-28; type: cell-based
Procedure: Soft Agar Assay. Soft agar assays were done in triplicate in 12-well plates (Corning, Corning N.Y.). First, the bottom layer of agar (0.6%) was allowed to solidify at room temperature. Next the top layer of agar was (0.3%) was mixed with 5,000 cells per well and the indicated drug. The drugs were added twice weekly in complete media to the agar wells. Colonies were quantified by staining with MTT (3-(4,5-Dimethylthiazol-2-yl)-2,5-diphenyltetrazolium bromide) 1 mg/mL for 1 hour at 37° C.
Experiments were also carried out to examine the effect of 3a in inhibiting the adherence-independent growth of cancer cells in soft agar.

Cl.N=C(N)SCc1ccc(Cl)cc1Cl [Compound 3a]
A549 tumor growth in words, 3a (A549 tumors [1]; 50 mpk/day i.p. or 150 mpk/day oral): completely inhibit tumor growth; also recorded: did not grow | tumor size, A549 xenograft (A549 tumors [1]; 50 mpk/day i.p.): 144±20 mm^3 | tumor size, A549 xenograft (A549 tumors [1]; 150 mpk/day oral): 148±32 mm^3 | inhibition of S-phase entry, H1650 [2]: 90% | inhibition of proliferation, LNCaP (LNCaP prostate cell line): 86% | Raf-1 binding to E2F-responsive promoters upon serum stimulation [3]: causes the dissociation of Raf-1; also recorded: disrupted | binding of E2F1, HDAC1 and HP1 to promoters [3]: not affected | dissociation of co-repressor Brg-1 from promoters [3]: retention of Brg1; also recorded: inhibited | apoptosis, TUNEL staining of tumors (A549 tumors [4]): dose dependent increase in apoptosis | microvasculature, CD31 staining of tumors (A549 tumors [4]): reduction in microvasculature | phospho-Rb staining of tumors (A549 tumors [4]): reduction in phosphorylation of Rb | proliferation, Ki-67 staining of tumors (A549 tumors [4]): significant inhibition of proliferation | adherence-independent growth in soft agar, SK-MEL-28 (SK-MEL-28 cells): significantly inhibited the growth
